Inconclusive results and toxic doses are left out. No stated cut-off is given here; in the data, active means T/C of 150% or more; inactive means T/C below 125%.
Tested on: L1210 leukemia ip in BDF1 mice, survival T/C
Assay: NCI In Vivo Anticancer Drug Screen. Data for tumor model L1210 Leukemia (intraperitoneal) in B6D2F1 (BDF1) mice
Conditions: endpoint: mean survival time, higher = longer survival
How it was run: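 Each compound was tested against a transplantable tumor grown in mice. The endpoint was survival, with treated animals benchmarked against vehicle controls as a simple ratio.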

[1] = dose: 100.0 mg/kg/injection, schedule: Q04DX003 (ip), vehicle: Klucel (hydroxypropylcellulose) (HPC)
[2] = dose: 200.0 mg/kg/injection, schedule: Q04DX003 (ip), vehicle: Klucel (hydroxypropylcellulose) (HPC)
[3] = dose: 100.0 mg/kg/injection, schedule: Q01DX001 (ip), vehicle: saline
[4] = dose: 200.0 mg/kg/injection, schedule: Q01DX001 (ip), vehicle: saline
[5] = dose: 400.0 mg/kg/injection, schedule: Q01DX001 (ip), vehicle: saline
[6] = dose: 200.0 mg/kg/injection, schedule: Q01DX001 (ip), vehicle: other

Measured: T/C

Cc1ccc(S(=O)(=O)OCC2CO2)c(C)c1 (stereo unspecified)
inactive: dose: 50.0 mg/kg/injection, schedule: Q01DX007 (ip), vehicle: saline with Tween-80 106 % of control | dose: 100.0 mg/kg/injection, schedule: Q01DX007 (ip), vehicle: saline with Tween-80 103 % of control | dose: 200.0 mg/kg/injection, schedule: Q01DX007 (ip), vehicle: saline with Tween-80 94 % of control

N#Cc1ccc[n+](Cc2ccc3c(c2)OCO3)c1
inactive: dose: 75.0 mg/kg/injection, schedule: Q01DX001 (ip), vehicle: saline 106 % of control | dose: 150.0 mg/kg/injection, schedule: Q01DX001 (ip), vehicle: saline 106 % of control

NC1=C(c2ccccc2)C(=O)c2ccccc21
inactive: dose: 100.0 mg/kg/injection, schedule: Q01DX009 (ip), vehicle: Klucel (hydroxypropylcellulose) (HPC) 107 % of control | [1] 106 % of control | dose: 200.0 mg/kg/injection, schedule: Q01DX009 (ip), vehicle: Klucel (hydroxypropylcellulose) (HPC) 86 % of control | [2] 95 % of control | dose: 400.0 mg/kg/injection, schedule: Q01DX009 (ip), vehicle: Klucel (hydroxypropylcellulose) (HPC) 96 % of control | dose: 400.0 mg/kg/injection, schedule: Q04DX003 (ip), vehicle: Klucel (hydroxypropylcellulose) (HPC) 90 % of control

COc1ccc(OC)c(NC(=O)N(CCC#N)C2CCCCC2)c1
inactive: [1] 91 % of control | [2] 91 % of control

Cc1ccccc1S(=O)(=O)c1cccs1
inactive: [3] 98 % of control | dose: 100.0 mg/kg/injection, schedule: Q04DX003 (ip), vehicle: acetone 98 % of control | [4] 95 % of control | dose: 200.0 mg/kg/injection, schedule: Q04DX003 (ip), vehicle: acetone 104 % of control | [5] 93 % of control | dose: 400.0 mg/kg/injection, schedule: Q04DX003 (ip), vehicle: acetone 93 % of control

CC(C)(C)OC(=O)NC(CCCCNC(=O)C(F)(F)F)C(=O)ON1C(=O)CCC1=O (stereo unspecified)
inactive: dose: 25.0 mg/kg/injection, schedule: Q01DX009 (ip), vehicle: saline with Tween-80 93 % of control | dose: 50.0 mg/kg/injection, schedule: Q01DX009 (ip), vehicle: saline with Tween-80 95 % of control | dose: 100.0 mg/kg/injection, schedule: Q01DX009 (ip), vehicle: saline with Tween-80 90 % of control

CCCNC(=O)c1cccc2c1-c1ccccc1C2=O
inactive: dose: 100.0 mg/kg/injection, schedule: Q01DX001 (ip), vehicle: other 93 % of control | [6] 93 % of control | dose: 400.0 mg/kg/injection, schedule: Q01DX001 (ip), vehicle: other 87 % of control

CC12OC3C4C(=O)OC1C1OC4(C)C3C(=O)OC12
inactive: dose: 100.0 mg/kg/injection, schedule: Q04DX003 (ip), vehicle: saline 102 % of control | dose: 200.0 mg/kg/injection, schedule: Q04DX003 (ip), vehicle: saline 97 % of control | dose: 400.0 mg/kg/injection, schedule: Q04DX003 (ip), vehicle: saline 95 % of control

CCCCCCC(c1ccccc1)c1ccccc1
inactive: [3] 100 % of control | [4] 97 % of control | [5] 100 % of control

CCOP(=O)(OCC)OC(=O)N(CC)CC
inactive: dose: 100.0 mg/kg/injection, schedule: Q04DX002 (ip), vehicle: saline 112 % of control | dose: 200.0 mg/kg/injection, schedule: Q04DX002 (ip), vehicle: saline 120 % of control

CCCCCC(O)C(C)C (stereo unspecified)
inactive: dose: 37.5 mg/kg/injection, schedule: Q04DX003 (ip), vehicle: saline 96 % of control | dose: 75.0 mg/kg/injection, schedule: Q04DX003 (ip), vehicle: saline 108 % of control | dose: 150.0 mg/kg/injection, schedule: Q04DX003 (ip), vehicle: saline 94 % of control

O=S(N=C(C(F)(F)F)C(F)(F)F)C(F)(F)F (stereo unspecified)
inactive: dose: 50.0 mg/kg/injection, schedule: Q01DX001 (ip), vehicle: Klucel (hydroxypropylcellulose) (HPC) 92 % of control | dose: 100.0 mg/kg/injection, schedule: Q01DX001 (ip), vehicle: Klucel (hydroxypropylcellulose) (HPC) 106 % of control

NNc1nncc(-c2ccccc2)n1
inactive: dose: 25.0 mg/kg/injection, schedule: Q01DX001 (ip), vehicle: other 100 % of control | dose: 50.0 mg/kg/injection, schedule: Q01DX001 (ip), vehicle: other 103 % of control | [6] 105 % of control

— PubChem BioAssay AID248 (DTP/NCI, 2004)
